Results published in ChEMBL document CHEMBL2034862, “Exploring the binding sites of glycogen synthase kinase 3. Identification and characterization of allosteric modulation cavities” (J Med Chem, 2011).
The source made the active and inactive calls. No cut-off for these calls is given here.

Experiments:
[1] = molecular target: T1, Glycogen synthase kinase-3 beta (Homo sapiens, UniProt P49841); assay: Non-competitive inhibition of human recombinant GSK3beta using GS2 as substrate after 10 mins by Glow type luminescence analysis in presence of 1 to 50 uM ATP
Target sequence in this assay (P49841 whole entry, looked up): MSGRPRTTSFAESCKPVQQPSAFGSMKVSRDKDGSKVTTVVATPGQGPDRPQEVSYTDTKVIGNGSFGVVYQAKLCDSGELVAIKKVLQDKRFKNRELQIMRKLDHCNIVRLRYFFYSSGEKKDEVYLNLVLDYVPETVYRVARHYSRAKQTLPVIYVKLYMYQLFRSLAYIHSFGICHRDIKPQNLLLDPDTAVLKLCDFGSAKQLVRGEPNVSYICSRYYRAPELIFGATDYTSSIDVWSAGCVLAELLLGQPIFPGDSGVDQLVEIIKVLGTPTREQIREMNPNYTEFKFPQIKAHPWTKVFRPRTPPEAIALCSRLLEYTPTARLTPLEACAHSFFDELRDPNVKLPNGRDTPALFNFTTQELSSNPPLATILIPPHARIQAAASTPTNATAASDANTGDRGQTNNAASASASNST

[2] = molecular target: T1, Glycogen synthase kinase-3 beta; assay: Reversible inhibition of human recombinant GSK3beta using GS2 as substrate after 10 mins by Glow type luminescence analysis
Target sequence in this assay (P49841 whole entry, looked up): as above

[3] = molecular target: T1, Glycogen synthase kinase-3 beta; assay: Non-competitive inhibition of human recombinant GSK3beta using GS2 as substrate after 10 mins by Glow type luminescence analysis in presence of 1 uM ATP
Target sequence in this assay (P49841 whole entry, looked up): as above

[4] = molecular target: T1, Glycogen synthase kinase-3 beta; assay: Inhibition of human recombinant GSK3beta incubated for 30 mins by Kinase Glo luminescent kinase assay
Target sequence in this assay (P49841 whole entry): as the sequence (P49841 whole entry, looked up) above

[5] = molecular target: T1, Glycogen synthase kinase-3 beta; assay: Non-competitive inhibition of human recombinant GSK3beta using GS2 as substrate after 10 mins by Glow type luminescence analysis
Target sequence in this assay (P49841 whole entry, looked up): as above

inhibition [1]: Active
inhibition [2]: Active
inhibition [3]: Active
IC50 [4]: 3.01 µM
inhibition [5]: Active
Compound: CCCCCCCCCCCC(=O)NNC(=O)c1c(O)c2ccccc2n(CC)c1=O
